Reference: patent US20150157021A1, “NEW ANTIFUNGAL COMPOSITIONS” (DSM IP ASSETS B.V., priority 2012, published 2015)

Tests used:
[1] = system: Botrytis cinerea; experiment: Treatment of wounded sweet peppers inoculated with Botrytis cinerea (Examples 9, 10); assay type: in vivo; conditions: 20° C., 400 ppm natamycin
Protocol: Ten fresh, organic sweet peppers were used per treatment. Each sweet pepper was soaked in a 180 ppm hypochlorite solution for 10 minutes, then rinsed thoroughly with fresh tap water and dried. The peel of each disinfected sweet pepper was wounded once using a cork borer according to the method described by de Lapeyre de Bellaire and Dubois (1987). Subsequently, each wound was inoculated with 10 μl of a Botrytis cinerea suspension containing 1×10^5 of spores/ml. After incubation for 3 hours at 20° C., each wound and the skin area of 0.5 cm around the wound was treated with in total 75 μl of a freshly prepared aqueous antifungal composition comprising either 400 ppm natamycin (DSM Food Specialties, Delft, The Netherlands), 600 ppm fenhexamid or both. Each antifungal composition also comprised 3.2% (w/w) beeswax, 0.8% (w/w) glycerol, 0.7% (w/w) polyoxyethylene sorbitan monostearate (Tween 60), 0.2% (w/w) polyoxyethylene sorbitan monooleate (Tween 80), 0.05% (w/w) methylhydroxyethyl-cellulose (MHEC), 0.03% (w/w) anti-foaming agent, 0.02% (w/w) xanthan gum, 0.02% (w/w) citric acid, 0.01% (w/w) lactic acid and 0.01% potassium sorbate. A composition without natamycin or fenhexamid was used as control.
The treated sweet peppers were incubated in a closed box in the dark at 20° C. and assessed on mould growth during a 26-day incubation period. The antifungal activity (in %) of the individual and combined active ingredients was determined by calculating the reduction in mould growth observed on the sweet peppers treated with the antifungal composition in comparison to the mould growth on the sweet peppers treated with the control composition according to the Colby method (Colby, 1967) described in Example 5.
The experiment was conducted as described in Example 9, except for the fact that each wounded and inoculated sweet pepper was treated with 75 μl of a freshly prepared aqueous antifungal composition comprising either 400 ppm natamycin (DSM Food Specialties, Delft, The Netherlands), 800 ppm carboxin or both. The treated sweet peppers were incubated in a closed box in the dark at 20° C. and assessed on mould growth during a 26-day incubation period. During incubation, the treated sweet peppers were assessed on mould growth according to the method described in Example 9.

[2] = system: Penicillium italicum; experiment: Treatment of wounded oranges inoculated with Penicillium italicum (Examples 7, 8); assay type: in vivo; conditions: 20° C., 250 ppm natamycin, 400 ppm boscalid or both
Protocol: Ten fresh, organic oranges were used per treatment. Each orange was soaked in a 180 ppm hypochlorite solution for 10 minutes, then rinsed thoroughly with fresh tap water and dried. The peel of each disinfected orange was wounded once using a cork borer according to the method described by de Lapeyre de Bellaire and Dubois (1987). Subsequently, each wound was inoculated with 10 μl of a Penicillium italicum suspension containing 1×10^5 of spores/ml. After incubation for 3 hours at 20° C., each wound and the orange peel area of 1 cm around the wound was treated with in total 150 μl of a freshly prepared aqueous antifungal composition comprising either 500 ppm natamycin (DSM Food Specialties, Delft, The Netherlands), 800 ppm boscalid or both. Each antifungal composition also comprised 3.2% (w/w) beeswax, 0.8% (w/w) glycerol, 0.7% (w/w) polyoxyethylene sorbitan monostearate (Tween 60), 0.2% (w/w) polyoxyethylene sorbitan monooleate (Tween 80), 0.05% (w/w) methylhydroxyethyl-cellulose (MHEC), 0.03% (w/w) anti-foaming agent, 0.02% (w/w) xanthan gum, 0.02% (w/w) citric acid, 0.01% (w/w) lactic acid and 0.01% potassium sorbate. A composition without natamycin or boscalid was used as control. […] The treated oranges were incubated in a closed box in the dark at 20° C. and assessed on mould growth during a 17-day incubation period. The antifungal activity (in %) of the individual and combined active ingredients was determined by calculating the reduction in mould growth observed on the oranges treated with the antifungal composition in comparison to the mould growth on the oranges treated with the control composition according to the Colby method (Colby, 1967) described in Example 5.
The experiment was conducted as described in Example 7, except for the fact that each wounded and inoculated orange was treated with 150 μl of a freshly prepared aqueous antifungal composition comprising either 250 ppm natamycin (DSM Food Specialties, Delft, The Netherlands), 400 ppm boscalid or both. The treated oranges were incubated in a closed box in the dark at 20° C. and assessed on mould growth during a 18-day incubation period. During incubation, the treated oranges were assessed on mould growth according to the method described in Example 7.

Structure (SMILES): C[C@@H]1C/C=C/C=C/C=C/C=C/[C@H](O[C@@H]2O[C@H](C)[C@@H](O)[C@H](N)[C@@H]2O)C[C@@H]2O[C@](O)(C[C@@H](O)C[C@H]3O[C@@H]3/C=C/C(=O)O1)C[C@H](O)[C@H]2C(=O)O [Natamycin, natamycin]
- Observed antifungal activity O (%) ([1]; 13-17 days, 600 ppm fenhexamid or both): 86%
- Observed antifungal activity O (%) ([1]; 17-19 days, 800 ppm carboxin or both): 86%
- Observed antifungal activity O (%) ([1]; 18-22 days, 600 ppm fenhexamid or both): 86%
- Observed antifungal activity O (%) ([1]; 20-21 days, 800 ppm carboxin or both): 87%
- Observed antifungal activity O (%) ([1]; 6 days, 600 ppm fenhexamid or both): 95%
- Observed antifungal activity O (%) ([1]; 8 days, 600 ppm fenhexamid or both): 94%
- Observed antifungal activity O (%) ([1]; 10 days, 600 ppm fenhexamid or both): 89%
- Observed antifungal activity O (%) ([1]; 11 days, 600 ppm fenhexamid or both): 87%
- Observed antifungal activity O (%) ([1]; 22 days, 800 ppm carboxin or both): 85%
- Observed antifungal activity O (%) ([1]; 24 days, 600 ppm fenhexamid or both): 83%
- Observed antifungal activity O (%) ([1]; 24 days, 800 ppm carboxin or both): 83%
- Observed antifungal activity O (%) ([1]; 25 days, 600 ppm fenhexamid or both): 82%
- Observed antifungal activity O (%) ([1]; 25 days, 800 ppm carboxin or both): 82%
- Observed antifungal activity O (%) ([1]; 26 days, 600 ppm fenhexamid or both): 79%
- Observed antifungal activity O (%) ([1]; 26 days, 800 ppm carboxin or both): 79%
- Observed antifungal activity O (%) ([2]; 11 days): 69%
- Observed antifungal activity O (%) ([2]; 12 days): 66%
- Observed antifungal activity O (%) ([2]; 13 days): 62%
- Observed antifungal activity O (%) ([2]; 14 days): 51%
- Observed antifungal activity O (%) ([2]; 17 days): 39%
- Observed antifungal activity O (%) ([2]; 18 days): 34%
